Results on 1 compound are retold here after publication PMC5760651, “Peptidomimetic blockade of MYB in acute myeloid leukemia” (Nature Communications, 2018).

What all share (format): cell-based, human
In one assay the test system is MOLM-13 cells. Put plainly: RNA-seq transcriptome profiling. The following applies: MOLM13 cells, 20 µM, 6 h. The protocol: Reads were quality and adapter trimmed using “trim_galore” before aligning to human assembly hg19 with STAR v2.5 using the default parameters. Coverage and post-alignment quality were assessed using the Picard tool CollectRNASeqMetrics (http://broadinstitute.github.io/picard/). Read count tables were created using HTSeq v0.6.1. Normalization and expression dynamics were evaluated with DESeq2 using the default parameters.

The next assay concerns MV-411 cells. Put plainly: H3K27Ac ChIP-PCR at the BCL2 enhancer. The following applies: 20 μM, 24 h, ChIP-qPCR, compared to TG3 or untreated control, p = 8.6e-3. On the procedure: Cross-linking was ended by the addition of 1/20 volume of 2.5 M Glycine for 5 min at room temperature followed by cell lysis and sonication ([…] Covaris sonicator) to obtain 100- to 500-bp chromatin fragments. H3K27Ac Rabbit polyclonal antibody (Abcam, #4729) was conjugated to Protein A and G Dynabeads per manufacturer's instructions (Thermo Fischer Scientific). Lysates were incubated overnight at 4 °C with antibody-conjugated beads in suspension. Precipitates were then washed sequentially with cold washing solution (1% NP-40, […], 50 mM Hepes-KOH, pH 7.6, 500 mM LiCl, 0.7% Na-Deoxycholate) and then washing solution (50 mM Tris-HCL, pH 8.0, 10 mM EDTA, 50 mM NaCl), then eluted in elution buffer (50 mM Tris-HCL, pH 8.0, 10 mM EDTA, 1% SDS). Reversal of crosslinks in elution buffer overnight at 65 °C followed by digestion of RNA and protein using RNase (Roche, Catalog No. 111119915-001) and Proteinase K (Roche, Catalog No. 03115828001). DNA purification was performed using PureLink PCR Purification Kit per manufacturer's protocol (Invitrogen). qPCR was performed as described below.
For orientation: In qPCR the cycle at which signal appears reflects the starting amount.

The test system of assay [1] is MOLM-13, MV-411, ML-2 and HL-60 cells. Put plainly: Cell viability of AML cell lines. The following applies: 6 days, 20 μM TG1, TG2 or TG3, 10 and 20 μM MYBMIM, peptide replacement every 48 h, compared to untreated control. The protocol: Cells were resuspended and plated at a concentration of 2 × 10^5 cells in 200 μl in 96-well tissue culture plates. Media with peptides was replaced every 48 h. To assess the number of viable cells, cells were resuspended in PBS and 10 µl of suspension was mixed in a 1:1 ratio with 0.4% Trypan Blue (Thermo Fisher) and counted using a hemacytometer (Hausser Scientific, Horsham, PA, USA). To assess viability using an ATP-based assay, cell viability was assessed using the CellTiter-Glo Luminescent Viability assay, according to the manufacturer’s instructions (Promega). Luminescence was recorded using the Infinite M1000Pro plate reader using integration time of 250 ms (Tecan).

The structures appear in SMILES notation. Non-standard residues stand in square brackets, D forms with d. Residues, ends and D or L forms follow the SMILES beside them.

Take `CC[C@@H](C)[C@@H](NC(=O)[C@@H](CCCCN)NC(=O)[C@@H](CCC(=O)O)NC(=O)[C@@H](CC(C)C)NC(=O)[C@@H](CCC(=O)O)NC(=O)[C@@H](CC(C)C)NC(=O)[C@@H](CC(C)C)NC(=O)[C@@H](CC(C)C)NC(=O)[C@@H](CCSC)NC(=O)[C@@H](CO)NC(=O)[C@H](NC(=O)[C@@H](CCC(=O)O)NC(=O)[C@@H](CC(N)=O)NC(=O)[C@@H](CCC(=O)O)NC(=O)[C@@H](CC(C)C)NC(=O)[C@@H](CCCCN)NC(C)=O)[C@H](C)O)C(=O)N[C@H](CCCNC(=N)N)C(=O)N[C@H](CCCCN)C(=O)NCC(=O)NCC(=O)N[C@H](CCCNC(=N)N)C(=O)N[C@H](CCCNC(=N)N)C(=O)N[C@H](CCCNC(=N)N)C(=O)N[C@H](CCC(N)=O)C(=O)N[C@H](CCCNC(=N)N)C(=O)N[C@H](CCCNC(=N)N)C(=O)N[C@H](CCCCN)C(=O)N[C@H](CCCCN)C(=O)N[C@H](CCCNC(=N)N)C(=O)NCC(=O)N[C@H](Cc1ccc(O)cc1)C(N)=O` [MYBMIM] (Ac-[dK][dL][dE][dN][dE][dT][dS][dM][dL][dL][dL][dE][dL][dE][dK][dI][dR][dK]GG[dR][dR][dR][dQ][dR][dR][dK][dK][dR]G[dY]-NH2): the “BCL2, MYC, GFI1, MTL5, IKZF1 gene expression” value with MOLM-13 cells is recorded as “significant downregulation”. The “H3K27Ac at the BCL2 enhancer” value with MV-411 cells was “significant albeit incomplete reduction”. Besides, in assay [1], the “Growth of AML cell lines” value is recorded as “sustained, logarithmic reduction of growth”.
